Measurements taken from patent US20050233984A1, “Composition for preventing or treating degenerative brain diseases comprising a hydrolysate of ginsenosides” (Digital Biotech Co., Ltd., priority 2002, published 2005).

How the values were obtained:
[1] = system: neuroblastoma B103 cell line; assay: MTT test: preventing the toxicity of beta-amyloid; format: cell-based; conditions: B103 cells, beta-amyloid-only control = 100%
Protocol: In order to examine the activities of the compounds prepared in the Reference Example in preventing the toxicity of beta-amyloid, the MTT analysis (Gillardon, F. et al., Brain Research. No. 6: pp. 169-172 (1996)) was carried out as follows.
5×10^3 cells of neuroblastoma B103 cell line (donated by Dr. David Schubert of the Salk Institute, USA) were placed in each well of a 96-well plate with 100 μl of DMEM (Dulbecco's Minimal Eagle's Medium) containing 10% fetal bovine serum (FBS), and cultured at 37° C. under 8% CO2 for 1 day. […] The cells were cultured at 37° C. for 18 hours, treated with 15 μl of MTT solution [10 mg/ml solution of 3-(4,5-dimethyl-2-thiazolyl)-2,5-diphenyl-2H-tetrazolium bromide in phosphate buffered saline (PBS)], and allowed to react at 37° C. for 3 to 4 hours. 100 μl of lysis buffer (10% SDS, 50% dimethylformamide, pH 4.7) was added to the wells, and the cells were cultured overnight at room temperature and relative humidity of 90%. Optical density (OD) of each well was measured at […] and 630 nm, respectively, using a scanning multiwell spectrophotometer, and then the OD value at 630 nm was subtracted from that at 570 nm.
Setting the survival rate of the control group treated only with beta-amyloid as 100%, relative survival rates of the experimental groups treated with compound Y, ginsenosides Mc and Rc, PPD and PPT, respectively, were calculated, and the results are shown in Table 2 and FIG. 1. The obtained values were statistically significant.
When the same procedure as above was repeated except that the cells were treated simultaneously with the test compound and beta-amyloid, or treated with the test compound one hour after the beta-amyloid treatment, the results were almost the same as above.
Further, in order to assess the concentration-dependent activity of a test compound, the above procedure was repeated using PPT at concentrations ranging from […].

mice = assay: Morris water maze test (spatial learning); format: in vivo; conditions: versus control group, FIG. 6
[2] = system: neuroblastoma B103 cell line; assay: MTT test: apoptosis induced by staurosporin; format: cell-based; conditions: B103 cells, staurosporin-only control = 100%
Protocol: 5×10^3 cells of neuroblastoma B103 cell line (donated by Dr. David Schubert of the Salk Institute, USA) were placed in each well of a 96-well plate with 100 μl of DMEM (Dulbecco's Minimal Eagle's Medium) containing 10% fetal bovine serum (FBS), and cultured at 37° C. under 8% CO2 for 1 day. After changing the medium to serum-free DMEM, the cells were treated with various concentrations of test compounds and, 1 hour later, with 25 μM of beta-amyloid (25-35 peptide; US peptide, CA, USA). The cells were cultured at 37° C. for 18 hours, treated with 15 μl of MTT solution [10 mg/ml solution of 3-(4,5-dimethyl-2-thiazolyl)-2,5-diphenyl-2H-tetrazolium bromide in phosphate buffered saline (PBS)], and allowed to react at 37° C. for 3 to 4 hours. 100 μl of lysis buffer (10% SDS, 50% dimethylformamide, pH 4.7) was added to the wells, and the cells were cultured overnight at room temperature and relative humidity of 90%. Optical density (OD) of each well was measured at […] and 630 nm, respectively, using a scanning multiwell spectrophotometer, and then the OD value at 630 nm was subtracted from that at 570 nm.
Further, in order to examine whether compounds originating from ginseng can block apoptosis, […], and the survival rates of the neural cells were determined.

[3] = Degree of BBB penetration: pharmacokinetics in blood and brain by LC-mass; format: in vivo, Sprague-Dawley rat; conditions: SD rat; for migration into the brain (in words): 1 mg/kg intravenous Rg1 or Rb1
Protocol: A male Sprague-Dawley rat (weight 250-300 g) was lightly anesthetized with ether and catheterized with a polyethylene tube (PE-50) in the femoral artery and vein. After the rat recovered, a saline solution containing 1 mg/kg of Rg1 or Rb1 was administered into the femoral vein through the intravenous bolus administration. 300 μl blood samples were collected from the rat's femoral artery at 2, 5, 10, 15, 20, 30, 45 and 60 minutes after the administration. Each blood sample was centrifuged to obtain 100 μl of plasma. A plasma sample was prepared as in (2) of step 1 with the plasma. 20 μl of the sample was injected into the LC mass system as in Step 1, and ginsenosides Rg1 and Rb1 and their metabolites PPD and PPT were quantified. The plasma concentrations of ginsenosides and their metabolites were calculated in the forms of weight per plasma (ml) (in case of ginsenosides) or peak size (in case of metabolites).
Immediately after collecting the blood samples, the rats were decapitated and brain tissues were obtained therefrom. The tissues were rinsed with ice-cooled saline, placed in a 15 ml Falcon tube and then weighed precisely. Acetonitrile was added to the tube in an amount twice the weight of the tissue sample, and the sample was homogenized using a tissue homogenizer (Ultra-Turrax T25, JANKE&KUNKEL IKA-Labortechnik). The mixture was centrifuged at 3,000 rpm for 20 minutes. 300 μl of the resulting supernatant was dried in a speed-vac, and 300 μl of acetonitrile was added thereto. 20 μl of the resulting mixture was injected in the LC mass system as in Step 1 to quantify the concentrations of ginsenosides and their metabolites in the brain, and the measured concentrations were represented by weight per gram of the brain tissue or peak size.
Separation and detection conditions for ginsenosides Rg1 and Rb1 were as described in Step 1, and those for metabolites PPD and PPT were as follows:
The transfer rate of the substances into the brain (Kbrain) can be represented by the ratio of the mean concentration of the substance in the brain (Cmean,brain) to the mean plasma concentration (Cmean,plasma) as in Equation 1. [formula]
The mean concentration of a substance can be determined by dividing the area under the concentration-time curve corresponding to time 0 to t by t and, accordingly, the transfer rate of the substance into the brain (Kbrain) can be calculated by Equation 2 shown below. [formula]

[4] = test compound 1 μM + 25 μM beta-amyloid (25-35), 18 hours
[5] = test compound 1 μM alone, without beta-amyloid
[6] = test compound 1 μM + 0.1 μM staurosporin
[7] = test compound 1 μM alone, without staurosporin

Row | Structure (SMILES) | Survival rate (%) [1, 4] | Survival rate (%) [1, 5] | time to reach the platform (mice) | Survival rate (%) [2, 6] | Survival rate (%) [2, 7] | Survival rate (%) ([1]; test compound 10 μM + 25 μM beta-amyloid (25-35), 18 hours) | Survival rate (%) ([1]; test compound 10 μM alone, without beta-amyloid) | migration into the brain (in words) [3] | concentration in the brain as compared with that in the plasma ([3]; 1 mg/kg intravenous bolus, until 60 min., FIG. 11b) | concentration in the brain ([3]; 1 mg/kg intravenous bolus of the ginsenoside, FIG. 11a)
1 | CC(C)=CCC[C@](C)(O[C@@H]1O[C@H](CO[C@@H]2O[C@@H](CO)[C@H](O)[C@H]2O)[C@@H](O)[C@H](O)[C@H]1O)[C@H]1CC[C@]2(C)[C@@H]1[C@H](O)C[C@@H]1[C@@]3(C)CC[C@H](O)C(C)(C)[C@@H]3CC[C@]12C [Ginsenoside Mc] | 106.1 ± 2.4% | 148.0 ± 6.3% | much shorter time to reach the platform | 101.1 ± 2.7% | 178.6 ± 6.3% | – | – | – | – | –
2 | CC(C)=CCC[C@](C)(O[C@@H]1O[C@H](CO[C@@H]2O[C@@H](CO)[C@H](O)[C@H]2O)[C@@H](O)[C@H](O)[C@H]1O)[C@H]1CC[C@]2(C)[C@@H]1[C@H](O)C[C@@H]1[C@@]3(C)CC[C@H](O[C@@H]4O[C@H](CO)[C@@H](O)[C@H](O)[C@H]4O[C@@H]4O[C@H](CO)[C@@H](O)[C@H](O)[C@H]4O)C(C)(C)[C@@H]3CC[C@]12C [Ginsenoside Rc] | 106.0 ± 0.9% | 161.0 ± 4.9% | much shorter time to reach the platform | 97.0 ± 4.8% | 191.4 ± 4.9% | 107.2 ± 1.9% | 126.7 ± 3.7% | – | – | –
3 | CC(C)=CCC[C@](C)(O[C@@H]1O[C@H](CO[C@@H]2O[C@H](CO)[C@@H](O)[C@H](O)[C@H]2O)[C@@H](O)[C@H](O)[C@H]1O)[C@H]1CC[C@]2(C)[C@@H]1[C@H](O)C[C@@H]1[C@@]3(C)CC[C@H](O[C@@H]4O[C@H](CO)[C@@H](O)[C@H](O)[C@H]4O[C@@H]4O[C@H](CO)[C@@H](O)[C@H](O)[C@H]4O)C(C)(C)[C@@H]3CC[C@]12C [ginsenoside Rb1, reference compound] | – | – | – | – | – | – | – | do not migrate into the brain | below 5.8% | –
4 | CC(C)=CCC[C@](C)(O[C@@H]1O[C@H](CO)[C@@H](O)[C@H](O)[C@H]1O)[C@H]1CC[C@]2(C)[C@@H]1[C@H](O)C[C@@H]1[C@@]3(C)CC[C@H](O)C(C)(C)[C@@H]3[C@@H](O[C@@H]3O[C@H](CO)[C@@H](O)[C@H](O)[C@H]3O)C[C@]12C [ginsenoside Rg1, reference compound] | – | – | – | – | – | – | – | do not migrate into the brain | – | below the detectable level
